We go through eight compounds from ChEMBL document CHEMBL1201862, “PubChem BioAssay data set” (2004).

Some test systems named below: CCRF-CEM; HCC 2998; HCT-116; HL-60; HOP-92; IGROV-1; KM12; NCI-H226; NCI-H522; NCI/ADR-RES; OVCAR-3; OVCAR-4; RXF 393; SF-539; SK-MEL-2; SNB-19; SR; SW-620; UACC-257; SNB-75.
What all share (test): inhibition of tumour cell growth, NCI panel, 48 h

The structures appear in SMILES notation.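 Grown in 96-well plates, cells were treated for 48 hours with each compound at five concentrations. Insufficient inhibition: endpoint recorded as highest concentration tested. Here, GI50 denotes the concentration required for 50% inhibition of growth.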 Activity calls are given as the source filed them. No stated cut-off is given here; in the data, active = GI50 up to about 1.1 µM and inactive = higher. Bounds are passed on as bounds.

Take `CN1C(NCCO)=NS(=O)(=O)c2ccccc21`: the GI50 in the assay with CCRF-CEM, in the assay on HCC 2998, in the assay with HCT-116, in the assay on HL-60, in the assay on HOP-92 and in the assay with IGROV-1 was > 100 µM (inactive) throughout. The GI50 in the assay on KM12, in the assay on NCI-H226, in the assay on NCI-H522, in the assay on NCI/ADR-RES, with OVCAR-3 and in the assay on OVCAR-4 was > 100 µM (inactive) in each case. In addition, the GI50 in the assay on RXF 393 was > 100 µM (inactive); with SF-539, > 100 µM (inactive); in the assay with SK-MEL-2, > 100 µM (inactive); in the assay on SNB-19, > 100 µM (inactive); in the assay on SR, 8.75 µM (inactive); in the assay with SW-620, > 100 µM (inactive). Moreover, the GI50 in the assay on UACC-257 is > 100 µM (inactive).

On to `c1ccc2oc(-c3ccc(-c4nc5ccccc5o4)c4c3CC4)nc2c1`, for which the GI50 with CCRF-CEM, in the assay with HCC 2998, in the assay on HCT-116, in the assay with HL-60, with HOP-92 and in the assay with IGROV-1 was > 100 µM (inactive) in each case. The GI50 in the assay on KM12, in the assay with NCI-H226, with NCI/ADR-RES, in the assay on OVCAR-3, in the assay on OVCAR-4 and in the assay on RXF 393 was > 100 µM (inactive) in each case. The GI50 in the assay on SF-539, in the assay on SK-MEL-2, in the assay with SNB-19, in the assay with SNB-75, in the assay with SR and in the assay on SW-620 was > 100 µM (inactive) throughout. In addition, the GI50 in the assay on UACC-257 was > 100 µM (inactive).

For the compound `C/C(=N/NC(=O)c1ccncc1)c1ccc(NC(=O)C(=O)Nn2c(S)nc3ccccc3c2=O)cc1`, the GI50 in the assay on CCRF-CEM was > 100 µM (inactive); in the assay with HCC 2998 it was > 100 µM (inactive); in the assay with HCT-116, > 100 µM (inactive); in the assay with HOP-92 it was 59 µM (inactive); with IGROV-1, 37.2 µM (inactive); in the assay on KM12, > 100 µM (inactive). For the same compound, the GI50 in the assay with NCI-H226, in the assay with NCI-H522, in the assay with NCI/ADR-RES, in the assay with OVCAR-3, in the assay on OVCAR-4 and in the assay on RXF 393 was > 100 µM (inactive) each time. Also, the GI50 in the assay on SF-539, in the assay on SK-MEL-2, with SNB-19, in the assay on SNB-75, in the assay with SR and in the assay on SW-620 was > 100 µM (inactive) throughout. In addition, the GI50 in the assay on UACC-257 was > 100 µM (inactive).

For the compound `C#CC(O)/C=C/CCCCCCC#CC/C=C\CC#CCCCCCC/C=C/C(O)C#C` (configuration not stated), the GI50 was 0.255 µM (active) in the assay on CCRF-CEM; 1.8 µM (inactive) in the assay on HCC 2998; 1.57 µM (inactive) with HCT-116; 1.77 µM (inactive) in the assay with HL-60; 2.4 µM (inactive) in the assay with HOP-92; 0.561 µM (active) with IGROV-1. Also, the GI50 is 2.32 µM (inactive) with KM12; 5.32 µM (inactive) in the assay on NCI-H226; 2.55 µM (inactive) in the assay with NCI/ADR-RES; 2.7 µM (inactive) in the assay on OVCAR-3; 2.57 µM (inactive) in the assay on OVCAR-4; 14.1 µM (inactive) in the assay on RXF 393. The GI50 with SF-539 was 24.5 µM (inactive); in the assay with SK-MEL-2, 2.99 µM (inactive); with SNB-19, 12.4 µM (inactive); with SNB-75, 7.19 µM (inactive); with SR it was 2.54 µM (inactive); in the assay with SW-620, 2.35 µM (inactive). For the same compound, the GI50 in the assay with UACC-257 is 2.39 µM (inactive).

On to `Cc1ccsc1C(=O)C(CC(=O)c1cccs1)c1ccsc1` (configuration not stated), for which the GI50 in the assay on CCRF-CEM was > 100 µM (inactive); with HCC 2998, > 100 µM (inactive); in the assay on HCT-116 it was 16.1 µM (inactive); with HOP-92 it was > 100 µM (inactive); with IGROV-1, > 100 µM (inactive); with KM12 it was > 100 µM (inactive). Also, the GI50 was > 100 µM (inactive) in the assay on NCI-H226; > 100 µM (inactive) in the assay on NCI-H522; 37.7 µM (inactive) with NCI/ADR-RES; > 100 µM (inactive) with OVCAR-3; > 100 µM (inactive) in the assay with OVCAR-4; > 100 µM (inactive) in the assay on RXF 393. In addition, the GI50 in the assay on SF-539 was > 100 µM (inactive); with SNB-19, > 100 µM (inactive); in the assay on SNB-75 it was > 100 µM (inactive); in the assay on SR, 62.8 µM (inactive); with SW-620, > 100 µM (inactive); in the assay on UACC-257, > 100 µM (inactive).

For the compound `CCc1nn(CN2CCN(C)CC2)c(=S)n1/N=C\c1ccc(-c2ccc([N+](=O)[O-])cc2)o1`, the GI50 in the assay on CCRF-CEM is 22.5 µM (inactive); with HCC 2998, 48.5 µM (inactive); in the assay with HCT-116, 58.5 µM (inactive); with HL-60, > 100 µM (inactive); in the assay with HOP-92 it was 30.4 µM (inactive); with IGROV-1, 89.9 µM (inactive). Moreover, the GI50 with KM12 was > 100 µM (inactive); in the assay on NCI-H226, 22.7 µM (inactive); in the assay on NCI-H522, 51.5 µM (inactive); in the assay on NCI/ADR-RES, 25.9 µM (inactive); with OVCAR-3, 30.6 µM (inactive); in the assay on OVCAR-4, 44 µM (inactive). The GI50 is 26.8 µM (inactive) in the assay on RXF 393; 74.3 µM (inactive) in the assay with SK-MEL-2; 33.7 µM (inactive) in the assay with SNB-19; 64.1 µM (inactive) in the assay with SR; 57.7 µM (inactive) in the assay with UACC-257.

For `Cc1ccnc(NC(=S)Nc2ccc([N+](=O)[O-])cc2)c1`, the GI50 in the assay on CCRF-CEM was > 100 µM (inactive); in the assay with HCC 2998, > 100 µM (inactive); with HCT-116, > 100 µM (inactive); with HL-60 it was > 100 µM (inactive); with HOP-92, 31.1 µM (inactive); in the assay with IGROV-1 it was 46.2 µM (inactive). Besides, the GI50 was > 100 µM (inactive) in the assay on KM12; > 100 µM (inactive) in the assay on NCI-H226; 56.5 µM (inactive) in the assay on NCI/ADR-RES; > 100 µM (inactive) in the assay on OVCAR-4; > 100 µM (inactive) in the assay on RXF 393; 26.4 µM (inactive) in the assay on SF-539. Besides, the GI50 is > 100 µM (inactive) in the assay on SK-MEL-2; > 100 µM (inactive) in the assay on SNB-19; 44.6 µM (inactive) in the assay on SNB-75; > 100 µM (inactive) with SR; > 100 µM (inactive) with SW-620; > 100 µM (inactive) in the assay on UACC-257.

In the case of `Cc1ccc(C(=O)/C=C2\Nc3ccccc3SC2=O)c(C)c1`, the GI50 was 36.3 µM (inactive) in the assay with CCRF-CEM; 59.3 µM (inactive) in the assay on HCC 2998; 38 µM (inactive) in the assay on HCT-116; 26.9 µM (inactive) with HL-60; 23.4 µM (inactive) with HOP-92; 29.8 µM (inactive) in the assay on IGROV-1. Further, the GI50 in the assay with KM12 was 46.8 µM (inactive); in the assay on NCI-H226 it was 30.7 µM (inactive); in the assay with NCI-H522, 26.9 µM (inactive); with NCI/ADR-RES it was 42.3 µM (inactive); in the assay with OVCAR-3 it was 34.1 µM (inactive); in the assay on OVCAR-4 it was 26.5 µM (inactive). Also, the GI50 with RXF 393 is < 0.01 µM (active); in the assay with SF-539, 43 µM (inactive); with SK-MEL-2, 42.1 µM (inactive); with SNB-19, 45.3 µM (inactive); in the assay on SR, 28.3 µM (inactive); in the assay with UACC-257, 42 µM (inactive).
